Test results taken from ChEMBL document CHEMBL6127010, “NMR structures of small molecules bound to a model of a CUG RNA repeat expansion” (Bioorg Med Chem Lett, 2024).

What follows are compounds tested on r(CUG) repeat/Muscleblind-like protein 1 (assay: Inhibition of 5'-biotinylated r(CUG) repeat (unknown origin) to His6-tagged MBNL1 (unknown origin) complex formation preincubated for 5 mins followed by compound addition for 15 mins prior to streptavidin-XL664 and anti-His6-Tb antibody addition for 1 hr by TR-FRET method).
Assay type: protein assay

SMILES	IC50 [µM]
N=C(N)Nc1ccc(OC(=O)c2ccc(NC(=N)N)cc2)cc1	8
NCCN1CCN=C1c1ccc(C(=O)Nc2ccc(C3=NCCN3)cc2)cc1	19
COc1cccc(Nc2cc(C)nc3ccc(C(=N)N)cc23)c1	100
